Results taken from patent publication US9145411B2, “Substituted amino-pyrimidine derivatives” (Asana Biosciences, LLC, priority 2012, dated 2015).

How the values were obtained:
PI3Kα mutation H1047R = PI3Kα mutation H1047R (Homo sapiens, UniProt P42336, H1047R); experiment: PI3 Kinase TR-FRET assay, PI3Kα mutation H1047R; assay type: biochemical; details: read-out: inhibition of PI3Kα mutation H1047R, IC50
Protocol: (§1) The ability of compounds of the invention to inhibit PI3K activity was determined in a homogeneous TR-FRET assay using a PI3K assay kit (Millipore, USA; cat #33-016) according to manufacturer's instructions. PI3-Kinases (isoforms α, β, γ and δ) catalyze the phosphorylation of phosphatidylinositol, PIP2 to PIP3 in the presence of ATP and Mg^2+. The PIP3 product is detected by displacement of biotin-PIP3 from an energy transfer complex consisting of Europium labeled anti-GST monoclonal antibody, a GST-tagged PH domain, biotinylated PIP3 and Streptavidin-APC. Excitation of Europium in the complex results in an energy transfer to the APC and a fluorescence emission at 665 nm. The PIP3 product displaces biotin-PIP3 from the complex resulting in a loss of energy transfer and thus a decrease in signal.
(§2) To test for the ability of compounds to inhibit the activity of PI3Kα (wild-type), exemplary compounds of formula (I) were dissolved in DMSO and directly distributed into 384-well plates at a volume of 0.5 μL. 14.5 μL of P110/P85α/PIP2 mixture in buffer (obtained from the Millipore kit) containing MgCl2 (40 mM) and DTT (5 mM) was added to compound wells and incubated for 60 minutes at room temperature. P110/P85α was expressed in SF9 insect cells and purified nickel column extraction. Five ng of wild-type P110/P85α was used in the assay. The kinase reaction was started by the addition of ATP. The assay concentrations of both PIP2 and ATP were 10 μM. The reaction mixture was incubated for 30 minutes at room temperature and was terminated by the addition of stop mix and detection mix. Fluorescence was measured at 615 and 665 nm upon excitation at 340 nm in a Victor™ V5 fluorometer (Perkin Elmer, USA). The fluorescence emission ratio at 665 to 615 nm, proportional to the kinase activity, was plotted against the compound concentration to generate dose-response curves and IC50 values were determined using GraphPad Prism® 5 software.
(§3) The activity of PI3Kα mutations H1047R and E545K were assayed in a similar manner to the assay protocol described above for PI3Kα (wild type). The compounds of formula (I) caused inhibition of PI3Kα mutations H1047R (a mutation associated with breast and gastric cancers) and E545K (a mutation associated with colorectal tumors, glioblastomas, gastric cancers, breast cancers, and lung cancers). For example, each of the compounds of Example 3, 7, 21, 47, 48 and 49 caused inhibition of each of the PI3Kα mutations H1047R and E545K with IC50 values<50 nM.

PI3Kα mutation E545K = PI3Kα mutation E545K (Homo sapiens, UniProt P42336, E545K); experiment: PI3 Kinase TR-FRET assay, PI3Kα mutation E545K; assay type: biochemical; details: read-out: inhibition of PI3Kα mutation E545K, IC50
Protocol: as §1, §2, §3

BT474 cells = experiment: XTT assay for cell viability, BT474 cells; assay type: cell-based; details: Homo sapiens, BT-474, read-out: inhibition of BT474 cell proliferation, IC50
Protocol: (§4) Using a commercial kit from Sigma Aldrich (Catalog #X34251) and following its protocol, PC3 cells in the log phase of growth were employed and seeded at an optimal density of 1000 cell/well on to 96 well plates and incubated for 24 hours followed by the addition of compounds of formula (I) in serial dilutions. Compound dilutions were made in DMSO. The cells were incubated with the compounds of formula (I) for 96 hours and XTT tetrazolium dye (Sigma, USA) was subsequently added and incubated at 37° C. After the color formation, absorbance was measured at 465 nm in a Spectramax® Gemini spectrophotometer. EC50 values were calculated using a sigmoidal dose response curve fit in GraphPad Prism® v5 software. The tested compounds of formula (I) which caused inhibition of PC3 cell proliferation as determined by this assay protocol are shown in Table 2.
(§5) XTT assays for cell viability were also determined in U87MG, BT474 cells and T47D cells, in a similar manner to the protocol described above. The compounds cause inhibition of U87MG, BT474 and T47D cell proliferation as determined by these assays. For example, the compounds of Examples 3 and 7 caused inhibition of U87MG, BT474 and T47D cell proliferation with IC50 values<600 nM.

T47D cells = experiment: XTT assay for cell viability, T47D cells; assay type: cell-based; details: Homo sapiens, read-out: inhibition of T47D cell proliferation, IC50
Protocol: as §4, §5

pAKT (T308) = experiment: In vivo PK/PD study, U87MG tumor xenograft, pAKT (T308); details: U87MG tumor-bearing xenograft mice, 50 mg/kg po
Protocol: PC3 cells are cultured at 37° C. in a 5% CO2 incubator using Hams F12 K medium. Ten million (10^7) cells are injected subcutaneously to the right flank region of athymic male mice (Harlan, age: 6-7 weeks, weight: about 20 g). Tumor bearing mice are randomized when the tumor volume reaches about 250 mm^3 and three mice are used per each time point. Test compounds of formula (I) are typically formulated in 40% HPCD in 1×PBS, pH 7.4 or in 10% Ethanol/40% Solutol/50% 50 mM aq. methanesulfonic acid and dosed orally at 50 mg/kg single dose (dose volume—10 mL/kg). Plasma and tumor samples are collected at 0 (vehicle control animals), 1, 4 and 24 hours post dosing. Blood is drawn (retro orbital) to a tube containing 0.2% EDTA for plasma collection. […] Tumor and plasma drug concentrations are measured for PK analysis using LC-MS.
Snap frozen tumor samples are pulverized in a mortar (Belart) containing liquid nitrogen and tumor powder is stored at −80° C. until analysis. […] The detection for pAKT is based on chemiluminescence and pS6RP is based on absorbance. […]
In vivo pharmacokinetic/pharmacodynamic (PK/PD) studies were carried out in a similar manner using U87MG tumor cells (glioma cancer cell line with a PTEN null mutation) and the corresponding tumor-bearing xenograft mice, and compounds of the invention were determined to be active in this assay. […]

Chain of PI3Kα mutation H1047R (P42336 whole entry H1047R, the tested form may be a part, canonical isoform): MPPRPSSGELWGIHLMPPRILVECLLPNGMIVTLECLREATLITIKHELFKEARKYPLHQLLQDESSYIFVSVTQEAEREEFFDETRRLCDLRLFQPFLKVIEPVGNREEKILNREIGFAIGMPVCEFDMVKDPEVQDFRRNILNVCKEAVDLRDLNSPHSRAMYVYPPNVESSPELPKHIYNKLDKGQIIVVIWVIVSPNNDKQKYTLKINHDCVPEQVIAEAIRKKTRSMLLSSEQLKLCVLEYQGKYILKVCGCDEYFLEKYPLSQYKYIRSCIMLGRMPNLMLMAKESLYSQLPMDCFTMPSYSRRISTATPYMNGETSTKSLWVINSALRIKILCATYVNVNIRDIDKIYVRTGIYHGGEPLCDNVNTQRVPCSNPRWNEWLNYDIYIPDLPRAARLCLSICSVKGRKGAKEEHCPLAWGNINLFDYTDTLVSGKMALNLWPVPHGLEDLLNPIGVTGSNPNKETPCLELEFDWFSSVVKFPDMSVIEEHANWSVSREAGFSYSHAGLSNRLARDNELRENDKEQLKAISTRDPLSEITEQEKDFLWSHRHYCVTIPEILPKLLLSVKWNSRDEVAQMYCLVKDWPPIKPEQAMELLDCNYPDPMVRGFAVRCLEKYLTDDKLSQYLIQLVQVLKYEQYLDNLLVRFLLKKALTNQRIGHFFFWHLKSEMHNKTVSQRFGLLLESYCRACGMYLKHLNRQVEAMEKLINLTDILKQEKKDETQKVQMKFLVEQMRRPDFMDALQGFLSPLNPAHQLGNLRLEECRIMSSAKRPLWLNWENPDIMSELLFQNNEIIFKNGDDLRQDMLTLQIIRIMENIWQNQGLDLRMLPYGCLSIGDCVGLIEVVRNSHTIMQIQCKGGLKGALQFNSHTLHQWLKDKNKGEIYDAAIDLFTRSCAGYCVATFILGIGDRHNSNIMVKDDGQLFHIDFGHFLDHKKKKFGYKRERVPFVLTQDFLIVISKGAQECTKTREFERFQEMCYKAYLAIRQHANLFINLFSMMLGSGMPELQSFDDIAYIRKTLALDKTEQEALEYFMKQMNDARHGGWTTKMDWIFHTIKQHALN
Chain of PI3Kα mutation H1047R (P27986 whole entry partner, the tested form may be a part, canonical isoform): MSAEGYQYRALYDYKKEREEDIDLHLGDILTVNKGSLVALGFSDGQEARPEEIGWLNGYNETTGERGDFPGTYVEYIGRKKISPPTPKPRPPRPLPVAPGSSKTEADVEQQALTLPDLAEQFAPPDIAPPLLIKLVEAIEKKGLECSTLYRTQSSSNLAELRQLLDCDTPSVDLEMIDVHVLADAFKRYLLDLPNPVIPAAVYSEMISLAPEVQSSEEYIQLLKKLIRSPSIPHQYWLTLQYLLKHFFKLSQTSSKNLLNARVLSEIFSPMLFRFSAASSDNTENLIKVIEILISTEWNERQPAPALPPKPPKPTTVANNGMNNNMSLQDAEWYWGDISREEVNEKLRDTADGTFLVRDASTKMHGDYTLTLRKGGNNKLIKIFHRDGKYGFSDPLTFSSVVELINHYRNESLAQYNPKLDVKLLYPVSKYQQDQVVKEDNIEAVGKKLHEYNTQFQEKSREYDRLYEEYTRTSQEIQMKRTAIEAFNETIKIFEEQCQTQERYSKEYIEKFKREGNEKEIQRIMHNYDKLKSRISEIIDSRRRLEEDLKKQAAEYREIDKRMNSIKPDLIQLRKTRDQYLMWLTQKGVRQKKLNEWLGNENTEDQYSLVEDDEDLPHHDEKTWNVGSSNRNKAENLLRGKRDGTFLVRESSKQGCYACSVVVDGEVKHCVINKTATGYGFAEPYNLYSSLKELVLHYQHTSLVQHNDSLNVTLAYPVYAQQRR
Chain of PI3Kα mutation E545K (P42336 whole entry E545K): as the sequence (P42336 whole entry H1047R, the tested form may be a part, canonical isoform) above, with E545K, R1047H counted along it
Chain of PI3Kα mutation E545K (P27986 whole entry partner): as the sequence (P27986 whole entry partner, the tested form may be a part, canonical isoform) above

IC50 (PI3Kα mutation H1047R) | IC50 (PI3Kα mutation E545K) | IC50 (BT474 cells) | IC50 (T47D cells) | Structure (SMILES) | suppression of pAKT (T308) (pAKT (T308))
< 0.05 µM | < 0.05 µM | < 0.6 µM | < 0.6 µM | CC(=O)Nc1cccc(-c2cnc3c(N4CCOCC4)nc(-c4cnc(N)nc4)nc3c2)c1 [Example 3, N-(3-(2-(2-Aminopyrimidin-5-yl)-4-morpholinopyrido[3,2-d]pyrimidin-7-yl)-phenyl)acetamide] | suppression
< 0.05 µM | < 0.05 µM | < 0.6 µM | < 0.6 µM | Nc1ncc(-c2nc(N3CCOCC3)c3ncc(-c4cccc(NC(=O)C5CC5)c4)cc3n2)cn1 [Example 7, N-(3-(2-(2-Aminopyrimidin-5-yl)-4-morpholinopyrido[3,2-d]pyrimidin-7-yl)-phenyl)cyclopropanecarboxamide] | 
 |  |  |  | N#CC1(C(=O)Nc2cccc(-c3cnc4c(N5CCOCC5)nc(-c5cnc(N)nc5)nc4c3)c2)CC1 [Example 61, N-(3-(2-(2-amino-pyrimidin-5-yl)-4-morpholinopyrido[3,2-d]pyrimidin-7-yl)phenyl)-1-cyanocyclopropane-carboxamide] | suppression
